Assay results taken from patent publication US10076519B2 (CYTOKINETICS, INC., priority 2010, dated 2018).

Each compound was assayed on rabbit skeletal myofibrils (fast skeletal myofibrils) (assay: Activation of fast skeletal myofibrils (PUMA assay, PK/LDH-coupled ATPase at pCa25)). Details: AC1.4 determined according to the procedure of Example 39; reported as class symbols.
Type: biochemical
Procedure, shortened: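 ATPase activity of Triton-washed rabbit skeletal myofibrils, roughly 90% fast fibres, tracked by NADH loss at 340 nm through a PK/LDH-coupled ADP-regenerating system. Calcium set to 25% of maximal activity (pCa25), in PIPES 12 mM pH 6.8 with 2 mM MgCl2 and 1 mM DTT; AC1.4 reported.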
In the case of CC(C)(CNc1ccc(C(=O)NCCC(N)=O)nn1)c1ccc(F)cc1 [N-(2-carbamoylethyl)(6-{[2-(4-fluorophenyl)-2-methylpropyl]amino}pyridazin-3-yl)carboxamide], the “Mean AC1.4” value is reported as “D (D=>20 uM)”. In the case of CC(C)(CNc1ccc(-c2ccc3c(N)n[nH]c3c2)nn1)c1ncccc1F [[6-(3-amino(1H-indazol-6-yl))pyridazin-3-yl][2-(3-fluoro(2-pyridyl))-2-methylpropyl]amine], the “Mean AC1.4” value is reported as “B (B=1-10 uM)”. With CC(C)(C)OC(=O)N1CCN(C(=O)c2ccc(NCC(C)(C)c3ccc(F)cc3)nn2)CC1 [tert-butyl 4-[(6-{[2-(4-fluorophenyl)-2-methylpropyl]amino}pyridazin-3-yl)carbonyl]piperazinecarboxylate] the “Mean AC1.4” value was “D (D=>20 uM)”. With NC(=O)c1cccc(-c2ccc(NCC3CCc4ccccc43)nn2)c1 (centres unmarked) [3-{6-[(indanylmethyl)amino]pyridazin-3-yl}benzamide] the “Mean AC1.4” value was “B (B=1-10 uM)”. For CC(C)(CNc1ccc(-c2cccc(C(=O)NCCCN)c2)nn1)c1ccc(F)cc1 [N-(3-aminopropyl)[3-(6-{[2-(4-fluorophenyl)-2-methylpropyl]amino}pyridazin-3-yl)phenyl]carboxamide], the “Mean AC1.4” value was “B (B=1-10 uM)”. In the case of CC(C)Nc1n[nH]c2ccc(-c3ccc(NCC4(c5ncccc5F)CCC4)nn3)cc12 [{[(3-fluoro(2-pyridyl))cyclobutyl]methyl}(6-{3-[(methylethyl)amino](1H-indazol-5-yl)}pyridazin-3-yl)amine], the “Mean AC1.4” value is reported as “A (A=<1 uM)”. C[C@@H](CNc1ccc(-c2cccc(C(N)=O)c2)nn1)c1ccc(F)cc1 was tested, and the “Mean AC1.4” value was “B (B=1-10 uM)”. With N=C(N)Nc1n[nH]c2ccc(-c3ccc(NCC4(c5ncccc5F)CCC4)nn3)cc12 the “Mean AC1.4” value was “B (B=1-10 uM)”. In the case of N#Cc1cccc(C2(CNc3ccc(-c4ccc5[nH]ncc5c4)nn3)CCC2)n1, the “Mean AC1.4” value is reported as “B (B=1-10 uM)”. In the case of CC(C)(CNc1ccc(-c2cnc3[nH]ncc3c2)nn1)c1ccc(F)cc1 [[2-(4-fluorophenyl)-2-methylpropyl](6-pyrazolo[5,4-b]pyridin-5-ylpyridazin-3-yl)amine], the “Mean AC1.4” value is reported as “B (B=1-10 uM)”. In the case of CC(C)(CNc1ccc(-c2cc(C(N)=O)c3[nH]ncc3c2)nn1)c1ccc(F)cc1 [5-(6-{[2-(4-fluorophenyl)-2-methylpropyl]amino}pyridazin-3-yl)-1H-indazole-7-carboxamide], the “Mean AC1.4” value is reported as “B (B=1-10 uM)”. Nc1nc(-c2ccc(NCC3(c4ncccc4F)CCC3)nn2)c[nH]1 [[6-(2-aminoimidazol-4-yl)pyridazin-3-yl]{[(3-fluoro(2-pyridyl))cyclobutyl]methyl}amine] was tested, and the “Mean AC1.4” value was “D (D=>20 uM)”. In the case of O=c1[nH]c2ccc(-c3ccc(NCC4(c5ncccc5F)CCC4)nn3)cc2[nH]1, the “Mean AC1.4” value is reported as “B (B=1-10 uM)”. With CC(C)(CNc1ccc(-c2cccc(C(=O)NCCN)c2)nn1)c1ccc(F)cc1 [N-(2-aminoethyl)[3-(6-{[2-(4-fluorophenyl)-2-methylpropyl]amino}pyridazin-3-yl)phenyl]carboxamide] the “Mean AC1.4” value was “A (A=<1 uM)”. In the case of O=C(O)c1cc(C(=O)O)cc(-c2ccc(NCC3(c4ncccc4F)CCC3)nn2)c1, the “Mean AC1.4” value is reported as “D (D=>20 uM)”. CC(C)(CNc1ccc(-c2c[nH]c(N)n2)nn1)c1ccc(F)cc1 [[6-(2-aminoimidazol-4-yl)pyridazin-3-yl][2-(4-fluorophenyl)-2-methylpropyl]amine] was tested, and the “Mean AC1.4” value was “B (B=1-10 uM)”.

Same assay, conditions: median AC1.4 class, procedure of Example 39
CC(C)(O)c1ccc(NCC2(c3ncccc3F)CCC2)nn1 was tested, and the “Mean AC1.4” value was “D (D=>20 uM)”. In the case of CC(O)c1cnc(-c2ccc(NCC3(c4ncccc4F)CCC3)nn2)s1 (centres unmarked) [1-{2-[6-({[(3-fluoro-2-pyridyl)cyclobutyl]methyl}ami-no)pyridazin-3-yl]-1,3-thiazol-5-yl}ethan-1-ol], the “Mean AC1.4” value is reported as “B (B=1-10 uM)”. O=C1CC[C@H](C(=O)NCc2cnc(-c3ccc(NCC4(c5ncccc5F)CCC4)nn3)s2)CN1 [((3S)-6-oxo(3-piperidyl))-N-({2-[6-({[(3-fluoro(2-pyridyl))cyclobutyl]methyl}ami-no)pyridazin-3-yl](1,3-thiazol-5-yl)}methyl)carboxamide] was tested, and the “Mean AC1.4” value was “A (A=<1 uM)”. For Cc1ncccc1-c1ccc(NCC2(c3ncccc3F)CCC2)nn1 [{[(3-fluoro(2-pyridyl))cyclobutyl]methyl}[6-(2-methyl(3-pyridyl))pyridazin-3-yl]amine], the “Mean AC1.4” value was “C (C=10-20 uM)”. NS(=O)(=O)c1cnc(-c2ccc(NCC3(c4ncccc4F)CCC3)nn2)s1 [2-[6-({[(3-fluoro-2-pyridyl)cyclobutyl]methyl}ami-no)pyridazin-3-yl]-1,3-thiazole-5-sulfonamide] was tested, and the “Mean AC1.4” value was “B (B=1-10 uM)”. With CC(C)(C)[S+]([O-])NCc1cnc(-c2ccc(NCC3(c4ncccc4F)CCC3)nn2)s1 (centres unmarked) [N-((2-(6-((1-(3-fluoropyridin-2-yl)cyclobutyl)methylamino)pyr-idazin-3-yl)thiazol-5-yl)methyl)-2-methylpropane-2-sulfinamide] the “Mean AC1.4” value was “B (B=1-10 uM)”. With O=C(NC[C@@H](O)CO)c1cnc(-c2ccc(NCC3(c4ncccc4F)CCC3)nn2)s1 [N-((2R)-2,3-dihydroxypropyl){2-[6-({[(3-fluoro(2-pyridyl))cyclobutyl]methyl}ami-no)pyridazin-3-yl](1,3-thiazol-5-yl)}carboxamide] the “Mean AC1.4” value was “B (B=1-10 uM)”. In the case of OCc1cnc(-c2ccc(NCC3(c4ncccc4F)CCC3)nn2)s1 [{2-[6-({[(3-fluoro-2-pyridyl)cyclobutyl]methyl}ami-no)pyridazin-3-yl]-1,3-thiazol-5-yl}methan-1-ol], the “Mean AC1.4” value is reported as “B (B=1-10 uM)”. With C[C@H](N)C(=O)NCc1cnc(-c2ccc(NCC3(c4ncccc4F)CCC3)nn2)s1 [(2S)-2-amino-N-({2-[6-({[(3-fluoro(2-pyridyl))cyclobutyl]methyl}ami-no)pyridazin-3-yl](1,3-thiazol-5-yl)}methyl)propanamide] the “Mean AC1.4” value was “A (A=<1 uM)”. With CC(C)(Nc1ccc(-c2cccc(NS(C)(=O)=O)c2)nn1)c1cccc(OC(F)F)n1 [{3-[6-({1-[6-(difluoromethoxy)(2-pyridyl)]-isopropyl}amino)pyridazin-3-yl]phenyl}(methylsulfonyl)amine] the “Mean AC1.4” value was “A (A=<1 uM)”. With COC(=O)c1cn(C)c(-c2ccc(NCC3(c4ncccc4F)CCC3)nn2)n1 [methyl 2-[6-({[(3-fluoro(2-pyridyl))cyclobutyl]methyl}ami-no)pyridazin-3-yl]-1-methylimidazole-4-carboxylate] the “Mean AC1.4” value was “D (D=>20 uM)”. For CN(C)c1n[nH]c2ccc(-c3ccc(NCC(C)(C)c4ccc(F)cc4)nn3)cc12 [[5-(6-{[2-(4-fluorophenyl)-2-methylpropyl]amino}pyridazin-3-yl)(1H-indazol-3-yl)]dimethylamine], the “Mean AC1.4” value was “B (B=1-10 uM)”. In the case of NC(=O)c1cccc(-c2ccc(NC3(c4ccc(F)cn4)CCC3)nn2)c1, the “Mean AC1.4” value is reported as “B (B=1-10 uM)”. For Fc1cccnc1C1(CNc2ccc(C3CNC3)nn2)CCC1 [(6-azetidin-3-ylpyridazin-3-yl){[(3-fluoro(2-pyridyl))cyclobutyl]methyl}amine], the “Mean AC1.4” value was “D (D=>20 uM)”. For N#Cc1sc(-c2ccc(NCC3(c4ncccc4F)CCC3)nn2)nc1O [2-[6-({[(3-fluoro(2-pyridyl))cyclobutyl]methyl}ami-no)pyridazin-3-yl]-4-hydroxy-1,3-thiazole-5-carbonitrile], the “Mean AC1.4” value was “D (D=>20 uM)”. NC(=O)c1ccc(Cl)c(-c2ccc(NC3(c4ncccc4F)CCC3)nn2)c1 was tested, and the “Mean AC1.4” value was “B (B=1-10 uM)”. For CC(C)(Nc1ccc(-c2ccccc2)nn1)c1ccccc1 [(1-methyl-1-phenylethyl)(6-phenylpyridazin-3-yl)amine], the “Mean AC1.4” value was “B (B=1-10 uM)”.

Same assay, conditions: median AC1.4 reported as class; procedure of Example 39
In the case of O=C(NC1CNC1)c1cccc(-c2ccc(NC[C@]3(c4ncccc4F)C[C@H](F)C3)nn2)c1 [N-azetidin-3-yl{3-[6-({[3-fluoro-1-(3-fluoro(2-pyridyl))cyclobutyl]methyl}ami-no)pyridazin-3-yl]phenyl}carboxamide], the “Mean AC1.4” value is reported as “B (B=1-10 uM)”. In the case of O=C(O)CCc1cnc(-c2ccc(NCC3(c4ncccc4F)CCC3)nn2)s1 [3-{2-[6-({[(3-fluoro-2-pyridyl)cyclobutyl]methyl}ami-no)pyridazin-3-yl]-1,3-thiazol-5-yl}propanoic acid], the “Mean AC1.4” value is reported as “B (B=1-10 uM)”. CCOC(=O)c1cnc(NC(=O)c2ccc(NCC3(c4ncccc4F)CCC3)nn2)s1 [ethyl 2-{[6-({[(3-fluoro-2-pyridyl)cyclobutyl]methyl}ami-no)pyridazin-3-yl]carbonylamino}-1,3-thiazole-5-carboxylate] was tested, and the “Mean AC1.4” value was “D (D=>20 uM)”. CNC(=O)Cc1cnc(-c2ccc(NC[C@]3(c4ncccc4Cl)C[C@H](F)C3)nn2)s1 [2-{2-[6-({[1-(3-chloro(2-pyridyl))-3-fluorocyclobutyl]methyl}amino)pyr-idazin-3-yl](1,3-thiazol-5-yl)}-N-methylacetamide] was tested, and the “Mean AC1.4” value was “B (B=1-10 uM)”. In the case of CCOC(=O)c1cc(-c2ccc(NC[C@]3(c4ncccc4F)C[C@H](F)C3)nn2)ccc1NC [ethyl 5-[6-({[3-fluoro-1-(3-fluoro(2-pyridyl))cyclobutyl]methyl}ami-no)pyridazin-3-yl]-2-(methylamino)benzoate], the “Mean AC1.4” value is reported as “A (A=<1 uM)”. O=C(NC1CC(F)(F)C1)c1ccc(F)c(-c2ccc(NC[C@]3(c4ncccc4F)C[C@H](F)C3)nn2)c1 [N-(3,3-difluorocyclobutyl){4-fluoro-3-[6-({[3-fluoro-1-(3-fluoro(2-pyridyl))cyclobutyl]methyl}ami-no)pyridazin-3-yl]phenyl}carboxamide] was tested, and the “Mean AC1.4” value was “A (A=<1 uM)”. With CNC(=O)Cc1csc(NC(=O)c2ccc(NCC3(c4ncccc4F)CCC3)nn2)n1 [2-(2-{[6-({[(3-fluoro(2-pyridyl))cyclobutyl]methyl}ami-no)pyridazin-3-yl]carbonylamino}(1,3-thiazol-4-yl))-N-methylacetamide] the “Mean AC1.4” value was “A (A=<1 uM)”. For O=C(O)c1cc2cc(-c3ccc(NC[C@]4(c5ncccc5F)C[C@H](F)C4)nn3)ccc2[nH]1 [5-[6-({[3-fluoro-1-(3-fluoro(2-pyridyl))cyclobutyl]methyl}ami-no)pyridazin-3-yl]indole-2-carboxylic acid], the “Mean AC1.4” value was “B (B=1-10 uM)”.
